According to patent publication US12403090B2, “Oral film compositions and dosage forms having precise active dissolution profiles” (Aquestive Therapeutics, Inc., priority 2018, dated 2025):

Experiment: Solubility of clobazam in COSF liquid mix and oral films
Format: physicochemical
Settings: API or films in 1.5 ml water; wet mass as such
Description: An experiment was conducted to assess the solubility of clobazam in the liquid mix (pre-drying) and oral films (COSF). Oral thin films containing 10 mg and 20 mg clobazam were prepared and then dissolved in 1.5 ml water. Two other samples were evaluated—one being the active in water (without the excipients added to the composition for oral films); and second being the liquid mix for the film but tested prior to film forming (i.e., drying).

For `CN1C(=O)CC(=O)N(c2ccccc2)c2cc(Cl)ccc21` [COSF API 10 mg, clobazam], the “% Clobazam Dissolved in sample” value was 1.576% and the “Actual Clobazam (mg/ml) in supernatant” value was 0.11 mg/mL.
